Assay results taken from ChEMBL document CHEMBL1137602, “Synthesis of aromatic compounds containing a 1,1-dialkyl-2-trifluoromethyl group, a bioisostere of the tert-alkyl moiety” (Bioorg Med Chem Lett, 2007).

Experiments:
[1] = target: Transient receptor potential cation channel subfamily V member 1 (Homo sapiens, UniProt Q8NER1); experiment: Antagonist activity at human TRPV1 receptor; format: functional
[2] = Intrinsic clearance in human liver microsomes; format: ADME, Microsome
Liver microsomes = experiment: Metabolic stability in human liver microsomes; format: ADME, Microsome

Sequence of Transient receptor potential cation channel subfamily V member 1 (Q8NER1 whole entry): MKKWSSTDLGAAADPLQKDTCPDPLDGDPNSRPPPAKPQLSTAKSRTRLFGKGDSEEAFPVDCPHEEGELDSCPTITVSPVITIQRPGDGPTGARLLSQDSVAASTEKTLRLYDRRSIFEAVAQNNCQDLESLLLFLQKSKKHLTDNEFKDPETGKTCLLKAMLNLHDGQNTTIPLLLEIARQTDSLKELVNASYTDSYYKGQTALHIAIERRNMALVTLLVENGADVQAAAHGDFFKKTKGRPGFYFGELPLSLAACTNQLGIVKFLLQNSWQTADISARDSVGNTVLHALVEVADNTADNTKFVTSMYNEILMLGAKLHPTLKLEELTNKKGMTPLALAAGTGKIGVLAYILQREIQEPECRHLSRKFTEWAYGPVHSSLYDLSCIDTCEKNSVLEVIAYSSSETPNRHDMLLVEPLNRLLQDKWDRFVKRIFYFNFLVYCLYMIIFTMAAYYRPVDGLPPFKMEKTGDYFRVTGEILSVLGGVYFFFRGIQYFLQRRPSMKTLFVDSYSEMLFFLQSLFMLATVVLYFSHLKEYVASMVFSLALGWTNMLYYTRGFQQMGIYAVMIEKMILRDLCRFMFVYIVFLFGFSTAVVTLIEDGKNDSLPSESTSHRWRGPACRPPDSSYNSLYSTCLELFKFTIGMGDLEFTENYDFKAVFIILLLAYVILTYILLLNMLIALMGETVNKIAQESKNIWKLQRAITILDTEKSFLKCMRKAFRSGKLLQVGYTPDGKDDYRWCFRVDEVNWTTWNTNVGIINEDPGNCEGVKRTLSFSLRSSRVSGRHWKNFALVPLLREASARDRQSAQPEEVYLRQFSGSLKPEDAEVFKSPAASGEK

IC50 [1]	CLint scaled [2]	Activity (Liver microsomes)	microsomal CLint [2]	Compound
37 nM	168 mL/min/kg	–	–	CC(C)(C)c1ccc(NC(=O)c2ccc(-c3ncccc3Cl)cc2)cc1
200 nM	< 10.5 mL/min/kg	–	–	O=C(Nc1ccc(C(F)(F)F)cc1)c1ccc(-c2ncccc2Cl)cc1
42 nM	46 mL/min/kg	Active	–	CC(C)(c1ccc(NC(=O)c2ccc(-c3ncccc3Cl)cc2)cc1)C(F)(F)F
–	–	Active	44.7 µL/min/mg	COc1ccc(C(C)(C)C(F)(F)F)cc1CN[C@H]1CCCN[C@H]1c1ccccc1
–	–	–	87.9 µL/min/mg	COc1ccc(C(C)(C)C)cc1CN[C@H]1CCCN[C@H]1c1ccccc1
